Tests used:
Assay in all cases: KINOMEscan competitive binding assay
Conditions in all cases: 10 uM
PRKCE = PRKCE (Homo sapiens (Human), UniProt Q02156)
CSNK1E = CSNK1E (Homo sapiens (Human), UniProt P49674)
CDK9 = CDK9 (Homo sapiens (Human), UniProt P50750)
Excerpt: (§1) In vitro kinase screen and competitive binding assay. Sorafenib as well as test compounds were submitted to Invitrogen and screened using their SelectScreen™ Profiling Service.

MEK1 = MEK1 (Homo sapiens (Human), UniProt Q02750)
Excerpt: as §1

FLT3(N841I) = FLT3(N841I) (Homo sapiens (Human), UniProt P36888, N841I)
Excerpt: as §1

ARK5 = ARK5 (Homo sapiens (Human), UniProt O60285)
Excerpt: as §1

RIOK3 = RIOK3 (Homo sapiens (Human), UniProt O14730)
RIOK3, sequence (O14730 whole entry): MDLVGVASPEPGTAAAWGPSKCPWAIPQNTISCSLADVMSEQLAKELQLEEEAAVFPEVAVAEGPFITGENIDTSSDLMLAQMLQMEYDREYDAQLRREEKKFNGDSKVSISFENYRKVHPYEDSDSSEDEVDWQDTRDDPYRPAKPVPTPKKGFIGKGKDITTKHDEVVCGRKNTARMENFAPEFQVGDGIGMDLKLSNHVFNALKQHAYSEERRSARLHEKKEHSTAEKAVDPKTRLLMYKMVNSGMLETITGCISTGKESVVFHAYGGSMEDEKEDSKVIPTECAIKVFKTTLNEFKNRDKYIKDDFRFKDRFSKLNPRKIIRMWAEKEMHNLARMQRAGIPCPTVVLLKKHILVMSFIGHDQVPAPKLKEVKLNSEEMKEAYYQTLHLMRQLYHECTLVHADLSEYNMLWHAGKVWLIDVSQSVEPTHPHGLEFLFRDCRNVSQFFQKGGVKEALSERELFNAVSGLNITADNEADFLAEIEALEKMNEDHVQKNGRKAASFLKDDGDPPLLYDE
Excerpt: as §1

PIK3CA = PIK3CA (Homo sapiens (Human), UniProt P42336)
PIK3CA, sequence (P42336 whole entry): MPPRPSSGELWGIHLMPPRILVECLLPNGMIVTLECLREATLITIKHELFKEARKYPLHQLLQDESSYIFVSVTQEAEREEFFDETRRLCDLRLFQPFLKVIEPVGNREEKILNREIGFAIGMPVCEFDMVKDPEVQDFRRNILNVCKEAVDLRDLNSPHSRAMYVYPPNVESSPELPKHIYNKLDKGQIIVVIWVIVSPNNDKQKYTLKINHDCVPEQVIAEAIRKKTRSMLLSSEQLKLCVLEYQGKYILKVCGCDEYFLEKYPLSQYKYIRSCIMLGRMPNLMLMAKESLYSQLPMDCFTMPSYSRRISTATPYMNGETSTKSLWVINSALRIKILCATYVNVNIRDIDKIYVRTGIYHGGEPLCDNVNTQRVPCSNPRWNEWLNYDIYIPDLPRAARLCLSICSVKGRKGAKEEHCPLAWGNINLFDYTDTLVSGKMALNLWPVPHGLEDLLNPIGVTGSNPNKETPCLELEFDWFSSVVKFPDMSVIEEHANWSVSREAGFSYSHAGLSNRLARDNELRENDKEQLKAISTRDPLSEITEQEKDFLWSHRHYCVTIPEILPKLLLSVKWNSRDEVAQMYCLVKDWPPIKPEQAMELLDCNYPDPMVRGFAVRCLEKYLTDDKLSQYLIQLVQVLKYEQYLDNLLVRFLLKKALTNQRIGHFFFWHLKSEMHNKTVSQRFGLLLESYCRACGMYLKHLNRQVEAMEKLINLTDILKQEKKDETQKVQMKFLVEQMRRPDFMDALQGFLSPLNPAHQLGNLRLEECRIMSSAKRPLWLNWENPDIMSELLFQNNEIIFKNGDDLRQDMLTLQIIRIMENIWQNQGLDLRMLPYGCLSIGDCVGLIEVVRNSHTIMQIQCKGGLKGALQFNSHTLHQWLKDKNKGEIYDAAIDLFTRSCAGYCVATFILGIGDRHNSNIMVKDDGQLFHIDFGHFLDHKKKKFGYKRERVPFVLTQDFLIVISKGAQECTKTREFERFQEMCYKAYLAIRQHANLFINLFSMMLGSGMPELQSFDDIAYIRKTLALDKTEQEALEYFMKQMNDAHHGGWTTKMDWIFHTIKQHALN
Excerpt: as §1

LIMK2 = LIMK2 (Homo sapiens (Human), UniProt P53671)
Excerpt: as §1

KIT(D616V) = system: KIT(D616V)
Excerpt: as §1

AMPK-alpha1 = AMPK-alpha1 (Homo sapiens (Human), UniProt Q13131)
Excerpt: as §1

CDK5 = CDK5 (Homo sapiens (Human), UniProt Q00535)
Excerpt: as §1

JNK1 = JNK1 (Homo sapiens (Human), UniProt P45983)
Excerpt: as §1

MET = MET (Homo sapiens (Human), UniProt P08581)
Excerpt: as §1

TIE1 = TIE1 (Homo sapiens (Human), UniProt P35590)
TIE1, sequence (P35590 22-1138): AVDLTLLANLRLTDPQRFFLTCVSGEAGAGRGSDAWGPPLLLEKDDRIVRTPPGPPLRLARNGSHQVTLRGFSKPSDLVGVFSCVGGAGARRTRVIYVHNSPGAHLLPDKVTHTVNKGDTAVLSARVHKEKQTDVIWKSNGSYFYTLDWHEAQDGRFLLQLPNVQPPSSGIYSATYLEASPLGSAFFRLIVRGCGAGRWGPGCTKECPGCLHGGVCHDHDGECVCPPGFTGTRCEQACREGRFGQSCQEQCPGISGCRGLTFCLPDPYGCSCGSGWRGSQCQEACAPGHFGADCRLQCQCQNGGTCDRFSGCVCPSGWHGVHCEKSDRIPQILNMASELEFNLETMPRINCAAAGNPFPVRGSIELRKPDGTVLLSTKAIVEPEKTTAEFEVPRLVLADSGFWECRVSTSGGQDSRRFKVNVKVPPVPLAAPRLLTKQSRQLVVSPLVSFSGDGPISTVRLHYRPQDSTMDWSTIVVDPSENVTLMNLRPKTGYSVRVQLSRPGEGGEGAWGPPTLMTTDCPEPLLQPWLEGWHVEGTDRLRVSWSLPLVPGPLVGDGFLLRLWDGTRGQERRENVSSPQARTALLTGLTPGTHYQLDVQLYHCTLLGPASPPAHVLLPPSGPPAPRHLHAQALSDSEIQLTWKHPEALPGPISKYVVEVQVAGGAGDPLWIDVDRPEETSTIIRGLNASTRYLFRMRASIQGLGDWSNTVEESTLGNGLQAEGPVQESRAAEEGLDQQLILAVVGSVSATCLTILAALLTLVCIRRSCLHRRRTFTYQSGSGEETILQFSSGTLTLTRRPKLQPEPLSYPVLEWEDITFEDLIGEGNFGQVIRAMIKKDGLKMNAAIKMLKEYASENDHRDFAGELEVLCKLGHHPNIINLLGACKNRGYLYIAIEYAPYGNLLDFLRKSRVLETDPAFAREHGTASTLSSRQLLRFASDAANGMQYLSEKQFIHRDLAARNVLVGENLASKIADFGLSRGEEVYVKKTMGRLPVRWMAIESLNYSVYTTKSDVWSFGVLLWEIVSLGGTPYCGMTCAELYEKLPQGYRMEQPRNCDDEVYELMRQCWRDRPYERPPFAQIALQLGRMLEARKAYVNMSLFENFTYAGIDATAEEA
Excerpt: as §1

BRAF(V600E) = BRAF(V600E) (Homo sapiens (Human), UniProt P15056, V600E)
Excerpt: as §1

ERK2 = ERK2 (Homo sapiens (Human), UniProt P28482)
Excerpt: as §1

AXL = AXL (Homo sapiens (Human), UniProt P30530)
Excerpt: as §1

CDK2 = CDK2 (Homo sapiens (Human), UniProt P24941)
Excerpt: as §1

FLT3(ITD) = system: FLT3(ITD)
Excerpt: as §1

CDK3 = CDK3 (Homo sapiens (Human), UniProt Q00526)
Excerpt: as §1

CLK2 = CLK2 (Homo sapiens (Human), UniProt P49760)
Excerpt: as §1

PAK4 = PAK4 (Homo sapiens (Human), UniProt O96013)
Excerpt: as §1

FLT1 = FLT1 (Homo sapiens (Human), UniProt P17948)
Excerpt: as §1

FLT3 D835Y = FLT3 D835Y (Homo sapiens (Human), UniProt P36888, D835Y)
Excerpt: as §1

EPHB4 = EPHB4 (Homo sapiens (Human), UniProt P54760)
Excerpt: as §1

TRKA = TRKA (Homo sapiens (Human), UniProt P04629)
Excerpt: as §1

KIT(V559D) = KIT(V559D) (Homo sapiens (Human), UniProt P10721, V559D)
Excerpt: as §1

KIT(V559D, T670I) = KIT(V559D, T670I) (Homo sapiens (Human), UniProt P10721, T670I/V559D)
Excerpt: as §1

EPHA2 = EPHA2 (Homo sapiens (Human), UniProt P29317)
Excerpt: as §1

RIPK1 = RIPK1 (Homo sapiens (Human), UniProt Q13546)
Excerpt: as §1

GSK3B = GSK3B (Homo sapiens (Human), UniProt P49841)
GSK3B, sequence (P49841 whole entry): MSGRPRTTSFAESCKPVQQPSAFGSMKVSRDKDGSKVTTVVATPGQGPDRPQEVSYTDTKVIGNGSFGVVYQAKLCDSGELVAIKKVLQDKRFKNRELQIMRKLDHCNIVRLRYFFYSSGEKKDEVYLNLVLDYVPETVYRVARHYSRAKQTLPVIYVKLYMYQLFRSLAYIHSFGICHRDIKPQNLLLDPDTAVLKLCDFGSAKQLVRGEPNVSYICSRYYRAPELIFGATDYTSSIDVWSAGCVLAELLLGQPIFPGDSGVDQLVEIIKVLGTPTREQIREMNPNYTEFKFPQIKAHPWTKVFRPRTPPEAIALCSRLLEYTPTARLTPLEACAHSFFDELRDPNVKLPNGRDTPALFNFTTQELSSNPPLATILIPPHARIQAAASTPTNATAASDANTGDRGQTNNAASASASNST
Excerpt: as §1

PRKCD = PRKCD (Homo sapiens (Human), UniProt Q05655)
Excerpt: as §1

KIT(V559D, V654A) = KIT(V559D, V654A) (Homo sapiens (Human), UniProt P10721, V559D/V654A)
Excerpt: as §1

IGF1R = IGF1R (Homo sapiens (Human), UniProt P08069)
Excerpt: as §1

FLT3(D835H) = FLT3(D835H) (Homo sapiens (Human), UniProt P36888, D835H)
Excerpt: as §1

FAK = FAK (Homo sapiens (Human), UniProt Q05397)
Excerpt: as §1

BMX = BMX (Homo sapiens (Human), UniProt P51813)
Excerpt: as §1

CDK7 = CDK7 (Homo sapiens (Human), UniProt P50613)
CDK7, sequence (P50613 whole entry): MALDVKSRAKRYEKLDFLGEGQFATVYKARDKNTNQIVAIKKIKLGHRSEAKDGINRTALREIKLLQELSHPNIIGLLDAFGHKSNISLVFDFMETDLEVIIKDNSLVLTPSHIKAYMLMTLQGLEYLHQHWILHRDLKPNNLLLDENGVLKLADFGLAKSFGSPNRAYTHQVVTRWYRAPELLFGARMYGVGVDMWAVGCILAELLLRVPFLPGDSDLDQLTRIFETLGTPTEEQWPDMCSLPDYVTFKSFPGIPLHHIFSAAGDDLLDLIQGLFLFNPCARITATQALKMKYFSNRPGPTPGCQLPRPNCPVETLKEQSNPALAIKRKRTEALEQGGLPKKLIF
Excerpt: as §1

TIE2 = TIE2 (Homo sapiens (Human), UniProt Q02763)
TIE2, sequence (Q02763 23-1124): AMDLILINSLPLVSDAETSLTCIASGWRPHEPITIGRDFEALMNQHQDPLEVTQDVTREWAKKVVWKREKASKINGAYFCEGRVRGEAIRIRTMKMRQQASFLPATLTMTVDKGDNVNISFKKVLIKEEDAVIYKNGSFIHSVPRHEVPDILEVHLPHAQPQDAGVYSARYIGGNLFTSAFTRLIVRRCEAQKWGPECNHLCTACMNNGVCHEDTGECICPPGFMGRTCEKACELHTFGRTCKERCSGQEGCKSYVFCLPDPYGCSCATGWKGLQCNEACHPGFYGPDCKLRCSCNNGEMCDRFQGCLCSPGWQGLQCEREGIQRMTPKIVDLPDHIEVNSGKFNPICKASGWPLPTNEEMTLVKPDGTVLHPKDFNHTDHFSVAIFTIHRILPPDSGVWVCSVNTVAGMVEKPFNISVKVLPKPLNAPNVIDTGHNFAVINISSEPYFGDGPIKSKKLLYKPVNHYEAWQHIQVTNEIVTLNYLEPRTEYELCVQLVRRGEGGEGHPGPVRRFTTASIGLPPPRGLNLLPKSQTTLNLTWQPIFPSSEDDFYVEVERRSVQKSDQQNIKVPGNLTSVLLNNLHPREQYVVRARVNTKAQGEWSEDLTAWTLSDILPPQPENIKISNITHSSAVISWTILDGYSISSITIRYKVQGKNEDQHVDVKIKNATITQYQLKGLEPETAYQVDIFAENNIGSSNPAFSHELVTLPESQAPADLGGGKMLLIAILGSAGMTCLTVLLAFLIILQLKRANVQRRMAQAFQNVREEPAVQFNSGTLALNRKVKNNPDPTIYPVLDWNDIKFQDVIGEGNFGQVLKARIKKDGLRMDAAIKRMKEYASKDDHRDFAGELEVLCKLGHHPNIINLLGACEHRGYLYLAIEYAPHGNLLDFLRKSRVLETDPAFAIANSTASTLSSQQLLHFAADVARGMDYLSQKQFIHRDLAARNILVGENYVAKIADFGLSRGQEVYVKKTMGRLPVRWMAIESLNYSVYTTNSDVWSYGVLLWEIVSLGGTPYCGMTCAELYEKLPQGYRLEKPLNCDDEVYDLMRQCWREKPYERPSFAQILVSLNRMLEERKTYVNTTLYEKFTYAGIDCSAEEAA
Excerpt: as §1

LKB1 = LKB1 (Homo sapiens (Human), UniProt Q15831)
Excerpt: as §1

CDC2L1 = CDC2L1 (Homo sapiens (Human), UniProt P21127)

CSNK1E, sequence (P49674 whole entry): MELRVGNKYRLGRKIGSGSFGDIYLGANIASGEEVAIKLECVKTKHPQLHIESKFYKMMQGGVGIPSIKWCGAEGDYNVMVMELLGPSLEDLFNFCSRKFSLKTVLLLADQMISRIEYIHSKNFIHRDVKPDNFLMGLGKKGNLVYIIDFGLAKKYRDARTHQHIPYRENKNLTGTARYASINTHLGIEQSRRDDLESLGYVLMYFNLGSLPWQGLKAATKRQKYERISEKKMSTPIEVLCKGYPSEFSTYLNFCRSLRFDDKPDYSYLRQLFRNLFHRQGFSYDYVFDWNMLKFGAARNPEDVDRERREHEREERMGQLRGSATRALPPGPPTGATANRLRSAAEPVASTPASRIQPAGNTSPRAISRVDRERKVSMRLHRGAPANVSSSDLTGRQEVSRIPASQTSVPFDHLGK

CSc1nc(N)cc(Oc2ccc(-c3nnc(Nc4cccc(C(F)(F)F)c4)[nH]3)cc2)n1 [Compound 6]
% Control (PRKCE): 91% | % Control (CSNK1E): 47% | % Control (CDK9): 100% | % Control (MEK1): 84% | % Control (FLT3(N841I)): 3.1% | % Control (ARK5): 70% | % Control (RIOK3): 100% | % Control (PIK3CA): 100% | % Control (LIMK2): 72% | % Control (KIT(D616V)): 76% | % Control (AMPK-alpha1): 72% | % Control (CDK5): 88% | % Control (JNK1): 98% | % Control (MET): 94% | % Control (TIE1): 76% | % Control (BRAF(V600E)): 98% | % Control (ERK2): 90% | % Control (AXL): 87% | % Control (CDK2): 87% | % Control (FLT3(ITD)): 3.1% | % Control (CDK3): 91% | % Control (CLK2): 84% | % Control (PAK4): 100% | % Control (FLT1): 81% | % Control (FLT3 D835Y): 18% | % Control (EPHB4): 94% | % Control (TRKA): 64% | % Control (KIT(V559D)): 0.1% | % Control (KIT(V559D, T670I)): 56% | % Control (EPHA2): 100% | % Control (RIPK1): 84% | % Control (GSK3B): 90% | % Control (PRKCD): 74% | % Control (KIT(V559D, V654A)): 15% | % Control (IGF1R): 100% | % Control (FLT3(D835H)): 17% | % Control (FAK): 100% | % Control (BMX): 97% | % Control (CDK7): 97% | % Control (TIE2): 88% | % Control (LKB1): 100% | % Control (CDC2L1): 70%

Source: US9260417B2, “Therapeutic methods and compositions involving allosteric kinase inhibition” (AMITECH THERAPEUTIC SOLUTIONS, INC., priority 2010, dated 2016)
